The values that follow come from US8906911B2, “Chemokine receptor antagonists” (AbbVie Inc., priority 2012, dated 2014).

Where two headings read alike, the source gives them in different places.

In assay [1] the target is T1, human CCR2B (Homo sapiens (Human), UniProt P41597). The assay can be described thus: Inhibition of [125I]-labeled MCP-1 binding to hCCR2B (radioligand binding in CHO cells). Particulars: mean Ki; [125I]-MCP-1 50 pM; CHO cells expressing human CCR2B and Gα16. The source says: CHO cells expressing human CCR2B were generated as follows. cDNA for human CCR2B (cloned from human blood) was cloned into plasmid pcDNA3.1 (from Invitrogen). The resulting plasmids were separately transfected into CHO cells expressing human Gα16 (from Molecular Devices). […] CHO cells expressing rat CCR2 were generated as follows. cDNA for rat CCR2 (cloned from rat macrophage) was cloned into plasmid pEF-flag (from Chinese Academy of Science). The resulting plasmids were transfected into CHO cells expressing human Gα16 (from […]).
T1 sequence (P41597 other isoform, or with tags, fused parts or gaps): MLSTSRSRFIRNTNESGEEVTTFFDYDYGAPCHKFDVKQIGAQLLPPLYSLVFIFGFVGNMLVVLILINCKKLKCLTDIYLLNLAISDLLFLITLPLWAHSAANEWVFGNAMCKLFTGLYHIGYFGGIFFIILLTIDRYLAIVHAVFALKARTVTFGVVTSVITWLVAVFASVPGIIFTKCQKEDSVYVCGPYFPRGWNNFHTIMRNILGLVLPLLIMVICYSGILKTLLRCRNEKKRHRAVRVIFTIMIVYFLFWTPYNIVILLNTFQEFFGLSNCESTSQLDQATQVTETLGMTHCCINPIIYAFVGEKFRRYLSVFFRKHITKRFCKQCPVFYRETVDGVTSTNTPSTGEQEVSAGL
Inhibition of [^125I]-Labeled MCP-1 Binding to hCCR2B
Radioligand binding assays were performed in CHO cells expressing human CCR2B and Gα16 coupling protein. All compounds were dissolved in DMSO and assays run at a final DMSO concentration of 0.5% (v/v). [^125I]-labeled human MCP-1 was purchased from PerkinElmer. Unlabelled human MCP-1 was purchased from PeproTech.
Compounds were serially diluted in DMSO before diluting into assay buffer (25 mM HEPES, pH 7.4, 5 mM MgCl2, 1 mM CaCl2, 0.5% BSA) with cryo preserved CHO cells expressing human CCR2B and the Gα16 coupling protein (30×10^3/well) and [^125I]-MCP-1 (50 pM). The reaction was incubated at room temperature for 90 minutes before transferring to GF/C filter membrane (PerkinElmer) pre-treated with 0.3% polyethyleneimine for 2 hours at 4° C. The filter membrane was washed six times with ice cold wash buffer (25 mM HEPES, pH 7.4, 5 mM MgCl2, 1 mM CaCl2, 500 mM NaCl, 0.01% (m/v) azide), dried, and sealed in a RLB sample bag (Agilent Technologies) before adding 5.0 mL Microscint 20 to each bag. Membrane was counted on Microbeta counter where background binding was determined by the presence of 100 nM MCP-1 and control total binding was determined by addition of DMSO in place of the test compound. The radioactivity values (cpm) were used to calculate the percent inhibition at a given compound concentration and the data fit to a sigmoidal curve in a semi-log plot to determine IC50 values. The corresponding Ki value is calculated as follows:
Ki=IC50/(1+[radioligand]/Kd), where [radioligand] is the concentration of the label and Kd (dissociation constant) is determined in saturation experiment with different concentrations of labeled MCP-1.

The next assay concerns the target rat CCR2 (Rattus norvegicus (Rat), UniProt O55193). In words: Inhibition of native agonist (rat MCP-1)-induced intracellular calcium release, calcium flux assay in CHO cells expressing rat CCR2 and Gα16. The class given is cell-based. As to conditions: read-out: rCCR2 Kb. Summed up:
(§1)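 Compound added to Calcium 4 dye-loaded adherent cells (dye loading 60 min, 37° C., HEPES pH 7.4 buffer with probenecid), then agonist: human MCP-1 at 2 nM final for hCCR2B cells, rat MCP-1 at 4 nM final for rCCR2 cells. FLIPR fluorescence change gave IC50. Kb=IC50/(1+[agonist]/EC50). Final DMSO 0.25%.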

In assay [2] the target is T1, human CCR2B. The assay can be described thus: Inhibition of native agonist (human MCP-1)-induced intracellular calcium release, calcium flux assay in CHO cells expressing human CCR2B and Gα16. Particulars: for IC50: read-out: hCCR2B IC50; for Kb: read-out: hCCR2B Kb. The class given is cell-based. Summed up: as §1
Background: Calcium flux is commonly read through the fluorescence of an indicator in the cells.

rat CCR2, sequence (O55193 whole entry): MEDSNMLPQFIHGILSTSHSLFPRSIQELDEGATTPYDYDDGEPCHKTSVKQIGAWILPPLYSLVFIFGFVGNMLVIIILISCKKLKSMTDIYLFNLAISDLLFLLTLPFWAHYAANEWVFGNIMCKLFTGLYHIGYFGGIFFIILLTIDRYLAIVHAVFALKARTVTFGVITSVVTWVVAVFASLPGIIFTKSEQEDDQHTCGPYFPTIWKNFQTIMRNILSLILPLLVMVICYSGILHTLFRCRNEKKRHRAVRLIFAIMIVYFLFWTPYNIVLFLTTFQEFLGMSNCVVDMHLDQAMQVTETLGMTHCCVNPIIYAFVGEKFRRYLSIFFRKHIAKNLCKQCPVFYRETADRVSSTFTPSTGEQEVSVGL

Usually Ki stands for a measure of affinity in units of concentration, obtained from inhibition or displacement. A word on the IC50: it is the concentration needed to halve the response being measured. On to `CO[C@@H]1COCC[C@@H]1N[C@@H]1C[C@H]2CCC[C@@]2(C(=O)N2C[C@@H]3C[C@H]2CN3c2cccc(C(F)(F)F)c2)C1` [Example 18, 1,5-anhydro-2,3-dideoxy-4-O-methyl-3-{[(2R,3aR,6aR)-3a-({(1S,4S)-5-[3-(trifluoromethyl)phenyl]-2,5-diazabicyclo[2.2.1]hept-2-yl}carbonyl)octahydropentalen-2-yl]amino}-D-erythro-pentitol], for which, at human CCR2B [1], the inhibition constant Ki came out at 207 nM. For the same compound, the Kb was found to be 6 nM at rat CCR2 and 19 nM on human CCR2B [2]. Also, at human CCR2B [2] (calcium flux, human MCP-1 2 nM), the IC50 was found to be 76.4 nM.

At human CCR2B [1], `N#Cc1ccc(C(F)(F)F)cc1N1C[C@@H]2C[C@H]1CN2C(=O)[C@@]12CCC[C@@H]1C[C@@H](N1CCC(c3ccccc3)CC1)C2` [Example 48, 2-[(1S,4S)-5-{[(2R,3aR,6aR)-2-(4-phenylpiperidin-1-yl)hexahydropentalen-3a(1H)-yl]carbonyl}-2,5-diazabicyclo[2.2.1]hept-2-yl]-4-(trifluoromethyl)benzonitrile] gave a Ki of 8 nM. For the same compound, the Kb at rat CCR2 was 17 nM; on human CCR2B [2] it was 13 nM. The IC50 at human CCR2B [2] was 51.8 nM.

The compound `C[C@@H]1COCC[C@H]1N[C@@H]1C[C@H]2CCC[C@@]2(C(=O)N2C[C@@H]3C[C@H]2CN3c2cc(C(F)(F)F)ccn2)C1` [Example 64, [(2R,3aR,6aR)-2-{[(3S,4R)-3-methyltetrahydro-2H-pyran-4-yl]amino}hexahydropentalen-3a(1H)-yl]{(1S,4S)-5-[4-(trifluoromethyl)pyridin-2-yl]-2,5-diazabicyclo[2.2.1]hept-2-yl}methanone] displayed a Ki on human CCR2B [1] of 12 nM. Moreover, the values for the Kb at rat CCR2 and on human CCR2B [2] were 9 nM and 4 nM, respectively. Further, on human CCR2B [2] (calcium flux, human MCP-1 2 nM), the IC50 came to 16.5 nM.

As for `CO[C@@H]1COCC[C@@H]1N[C@@H]1C[C@H]2CCC[C@@]2(C(=O)N2C[C@@H]3C[C@H]2CN3c2ccnc(C(F)(F)F)c2)C1` [Example 26, 1,5-anhydro-2,3-dideoxy-4-O-methyl-3-{[(2R,3aR,6aR)-3a-({(1S,4S)-5-[2-(trifluoromethyl)pyridin-4-yl]-2,5-diazabicyclo[2.2.1]hept-2-yl}carbonyl)octahydropentalen-2-yl]amino}-D-erythro-pentitol], at human CCR2B [1], the inhibition constant Ki is 792 nM. Moreover, the Kb is 22 nM at rat CCR2 and 147 nM at human CCR2B [2]. The IC50 at human CCR2B [2] (calcium flux, human MCP-1 2 nM) is 598 nM.

As to `C[C@H]1COCC[C@@H]1N[C@@H]1C[C@H]2CCC[C@@]2(C(=O)N2C[C@@H]3C[C@H]2CN3c2cc(C(F)(F)F)ccn2)C1` [Example 61, [(2R,3aR,6aR)-2-{[(3R,4S)-3-methyltetrahydro-2H-pyran-4-yl]amino}hexahydropentalen-3a(1H)-yl]{(1S,4S)-5-[4-(trifluoromethyl)pyridin-2-yl]-2,5-diazabicyclo[2.2.1]hept-2-yl}methanone], affinity at human CCR2B [1] was put at a Ki of 69 nM. In addition, the Kb on rat CCR2 was 30 nM; at human CCR2B [2], 25 nM. On human CCR2B [2] (calcium flux, human MCP-1 2 nM), the IC50 amounted to 100 nM.

Regarding `CO[C@@H]1COCC[C@@H]1N[C@@H]1C[C@H]2CCC[C@@]2(C(=O)N2C[C@@H]3C[C@H]2CN3c2cc(C(F)(F)F)ccc2C#N)C1` [Example 28, 1,5-anhydro-3-{[(2R,3aR,6aR)-3a-({(1S,4S)-5-[2-cyano-5-(trifluoromethyl)phenyl]-2,5-diazabicyclo[2.2.1]hept-2-yl}carbonyl)octahydropentalen-2-yl]amino}-2,3-dideoxy-4-O-methyl-D-erythro-pentitol], on human CCR2B [1], affinity was put at a Ki of 32 nM. Besides, the Kb on rat CCR2 and at human CCR2B [2] was 5 nM in each case. Also, the IC50 at human CCR2B [2] (calcium flux, human MCP-1 2 nM) is 19.8 nM.

`CO[C@@H]1COCC[C@@H]1N[C@@H]1C[C@H]2CCC[C@@]2(C(=O)N2C[C@@H]3C[C@H]2CN3c2ccc(C)c(C(F)(F)F)c2)C1` [Example 19, 1,5-anhydro-2,3-dideoxy-4-O-methyl-3-{[(2R,3aR,6aR)-3a-({(1S,4S)-5-[4-methyl-3-(trifluoromethyl)phenyl]-2,5-diazabicyclo[2.2.1]hept-2-yl}carbonyl)octahydropentalen-2-yl]amino}-D-erythro-pentitol] displayed a Ki at human CCR2B [1] of 306 nM. Besides, the Kb is 12 nM at rat CCR2 and 57 nM at human CCR2B [2]. The half-inhibitory concentration (IC50) at human CCR2B [2] (calcium flux, human MCP-1 2 nM) amounted to 233 nM.

In the case of `CO[C@@H]1COCC[C@@H]1N[C@@H]1C[C@H]2CCC[C@@]2(C(=O)N2C[C@@H]3C[C@H]2CN3c2ccc(Cl)c(C#N)c2)C1` [Example 47, 1,5-anhydro-3-{[(2R,3aR,6aR)-3a-{[(1S,4S)-5-(4-chloro-3-cyanophenyl)-2,5-diazabicyclo[2.2.1]hept-2-yl]carbonyl}octahydropentalen-2-yl]amino}-2,3-dideoxy-4-O-methyl-D-erythro-pentitol], the Ki on human CCR2B [1] stood at 77 nM. Further, the Kb was determined as 4 nM at rat CCR2 and 12 nM at human CCR2B [2]. Besides, the IC50 at human CCR2B [2] came out at 49.8 nM.

In the case of `CO[C@@H]1COCC[C@@H]1N[C@@H]1C[C@H]2CCC[C@@]2(C(=O)N2C[C@@H]3C[C@H]2CN3c2ccc(Cl)c(Cl)c2)C1` [Example 40, 1,5-anhydro-2,3-dideoxy-3-{[(2R,3aR,6aR)-3a-{[(1S,4S)-5-(3,4-dichlorophenyl)-2,5-diazabicyclo[2.2.1]hept-2-yl]carbonyl}octahydropentalen-2-yl]amino}-4-O-methyl-D-erythro-pentitol], on human CCR2B [1], the Ki is 38 nM. The figures for the Kb at rat CCR2 and on human CCR2B [2] were 3 nM and 10 nM, respectively. Further, the half-inhibitory concentration (IC50) on human CCR2B [2] (calcium flux, human MCP-1 2 nM) was 41.5 nM.

On human CCR2B [1], `CO[C@@H]1COCC[C@H]1N[C@@H]1C[C@H]2CCC[C@@]2(C(=O)N2C[C@@H]3C[C@H]2CN3c2cc(C(F)(F)F)ccn2)C1` [Example 1, 1,5-anhydro-2,3-dideoxy-4-O-methyl-3-{[(2R,3aR,6aR)-3a-({(1S,4S)-5-[4-(trifluoromethyl)pyridin-2-yl]-2,5-diazabicyclo[2.2.1]hept-2-yl}carbonyl)octahydropentalen-2-yl]amino}-D-threo-pentitol] yielded a Ki of 32 nM. Moreover, the Kb on rat CCR2 is 23 nM; on human CCR2B [2], 14 nM. Also, the IC50 at human CCR2B [2] (calcium flux, human MCP-1 2 nM) stood at 54.9 nM.

With `CO[C@@H]1COCC[C@@H]1N[C@@H]1C[C@H]2CCC[C@@]2(C(=O)N2C[C@@H]3C[C@H]2CN3c2nc(C(F)(F)F)cs2)C1` [Example 30, 1,5-anhydro-2,3-dideoxy-4-O-methyl-3-{[(2R,3aR,6aR)-3a-({(1S,4S)-5-[4-(trifluoromethyl)-1,3-thiazol-2-yl]-2,5-diazabicyclo[2.2.1]hept-2-yl}carbonyl)octahydropentalen-2-yl]amino}-D-erythro-pentitol], the affinity at human CCR2B [1] corresponds to a Ki of 831 nM. For the same compound, the Kb on rat CCR2 stood at 4 nM; on human CCR2B [2], 23 nM. Also, the half-maximal inhibitory concentration (IC50) on human CCR2B [2] (calcium flux, human MCP-1 2 nM) came out at 95.5 nM.

`CO[C@@H]1COCC[C@@H]1N(C)[C@@H]1C[C@H]2CCC[C@@]2(C(=O)N2C[C@@H]3C[C@H]2CN3c2cc(C(F)(F)F)ccn2)C1` [Example 7, 1,5-anhydro-2,3-dideoxy-4-O-methyl-3-{methyl[(2R,3aR,6aR)-3a-({(1S,4S)-5-[4-(trifluoromethyl)pyridin-2-yl]-2,5-diazabicyclo[2.2.1]hept-2-yl}carbonyl)octahydropentalen-2-yl]amino}-D-erythro-pentitol] gave a Ki on human CCR2B [1] of 30 nM. Further, the Kb at rat CCR2 was 10 nM; on human CCR2B [2] it was 16 nM. At human CCR2B [2] (calcium flux, human MCP-1 2 nM), the 50% inhibitory concentration (IC50) was 65.7 nM.
